Assay results published in paper PMC7802075 (ACS Infectious Diseases, 2020).
Entries after “also recorded” stand apart in the source; their conditions may differ. Where a name gives a salt, the structure may show the parent alone.

How the values were obtained:
[1] = target: T1, LmjIPCS (inositol phosphorylceramide synthase from L. major) (Leishmania major, UniProt E9AFX2); test: biochemical; type: biochemical; design: inhibition: dose or concentration left out as unconfirmed
T1 sequence (E9AFX2 1-338): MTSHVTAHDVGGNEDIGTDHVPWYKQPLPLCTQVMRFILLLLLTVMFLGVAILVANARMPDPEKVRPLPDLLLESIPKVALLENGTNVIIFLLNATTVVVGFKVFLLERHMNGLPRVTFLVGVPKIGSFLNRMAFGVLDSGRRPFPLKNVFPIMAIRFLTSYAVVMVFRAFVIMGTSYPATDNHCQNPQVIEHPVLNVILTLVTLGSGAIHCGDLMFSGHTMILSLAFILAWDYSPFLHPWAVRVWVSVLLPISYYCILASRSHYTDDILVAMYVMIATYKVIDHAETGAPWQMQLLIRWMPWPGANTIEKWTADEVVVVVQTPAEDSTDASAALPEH

[2] = system: clemastine fumarate-resistant L. major promastigotes (cl.C and cl.D); type: cell-based, Leishmania major
[3] = system: L. major (FV1) promastigotes; test: Antipromastigote resazurin assay, L. major (FV1) wild type; type: cell-based, Leishmania major
[4] = system: L. major ΔLmjLCB2 mutant promastigotes; test: microbe, parasite or virus in culture; type: cell-based; conditions: Leishmania major; sphingolipid-free mutant, 48 h; read-out: EC50 ΔLmjLCB2 parasites
[5] = system: L. major add-back (AB) line promastigotes [pXNEO LmLCB2]; test: microbe, parasite or virus in culture; type: cell-based; conditions: Leishmania major, 48 h
[6] = system: Leishmania species (L. major, L. amazonensis, L. donovani, L. infantum); test: Dose response positive control, each Leishmania species; type: cell-based, Leishmania spp.; conditions: for each species
Description: […]. Resazurin solution (10 μL) was then added and the plate, incubated at 26 °C for 4 h prior to measurement using a fluorescence plate reader (Ex555/Em585). EC50 values were calculated using sigmoidal regression analysis (GraphPad Prism).
[…]. After 24 h of infection, serial dilutions of the test compounds in medium were added and the slides were incubated at 37 °C and 5% CO2 for 5 days (L. major) or 2 days (L. amazonensis). Amphotericin B and miltefosine were used as controls. At the end, cells were fixed with methanol and stained with Giemsa solution, and the intracelular amastigotes were counted using a light microscope. Results were expressed as the percentage reduction of intracellular amastigotes (compared with untreated control wells). EC50 values were calculated using sigmoidal regression analysis (GraphPad Prism).

[7] = system: BMDM uninfected macrophages, nitrite formation; test: Nitric oxide assay (Griess) in uninfected macrophages; type: cell-based, mouse; conditions: serial dilutions, 48 h
Description: The release of nitric oxide was measured in the culture supernatant by the Griess method, as described previously.[81] The absorbance was measured at 570 nm, and the nitrite concentration was determined using a standard curve of sodium nitrite (0 to 50 μM). The positive control was macrophages incubated with 1 μg mL^–1 LPS (Sigma-Aldrich, Brazil) and 10% conditioned medium of lymphocytes as a source of IFN. Negative controls were cells treated with DMSO and untreated cells.

[8] = system: wild type Leishmania major promastigotes; type: cell-based
[9] = system: L. amazonensis intracellular amastigotes in BMDM from C57BL/6 WT or P2X7R KO mice
[10] = in vivo; cited from earlier work
[11] = in vivo; cited from earlier work; remark: listed apart in the source
[12] = in vivo; cited from earlier work; remark: listed apart in the source

For NC[C@@H]1O[C@H](O[C@H]2[C@@H](O)[C@H](O[C@@H]3[C@@H](O)[C@H](N)C[C@H](N)[C@H]3O[C@H]3O[C@H](CO)[C@@H](O)[C@H](O)[C@H]3N)O[C@@H]2CO)[C@H](N)[C@@H](O)[C@@H]1O [paromomycin, reference compound], the inhibition ([1]; read-out: inhibition LmjIPCS) was -17% and the “cross-resistance in clemastine fumarate-resistant L. major clones” value (“cross-resistance” below) [2] was “no evidence for cross-resistance”.

C[C@@H]1C[C@@H]([C@H](O)CC2CC(=O)NC(=O)C2)C(=O)[C@@H](C)C1 [cycloheximide, reference compound] showed an inhibition at 20000 µM ([1]; read-out: 20mM inhibition LmjIPCS) of 9%, an EC50 ([3]; Leishmania major, FV1 WT, 48 h, compared with mutant lines, read-out: EC50 wild type L. major promastigotes) of 0.02 µM and an EC50 [4] of 0.02 µM. It also gave an EC50 [5] of 0.02 µM.

With C[C@@H]1[C@H](O)[C@@H](C)/C=C/C=C/C=C/C=C/C=C/C=C/C=C/[C@H](O[C@@H]2O[C@H](C)[C@@H](O)[C@H](N)[C@@H]2O)C[C@@H]2O[C@](O)(C[C@@H](O)C[C@@H](O)[C@H](O)CC[C@@H](O)C[C@@H](O)CC(=O)O[C@H]1C)C[C@H](O)[C@H]2C(=O)O [amphotericin B] the “20mM inhibition LmjIPCS” value [1] was 41%, the “cross-resistance” value [2] was “no evidence for cross-resistance” and the EC50 [6] was 0.027 ± 0.003 µM.

For N=C(N)c1ccc(OCCCCCOc2ccc(C(=N)N)cc2)cc1 [pentamidine 9, pentamidine, reference compound], the “10mM inhibition L. major” value [3] was 59%, the “ED50 vs L. major” value [3] was 2050 µM and the “cross-resistance” value [2] was “no evidence for cross-resistance; also recorded: statistically significant hypersensitivity”.

In the case of CN1CCC[C@@H]1CCO[C@](C)(c1ccccc1)c1ccc(Cl)cc1 [clemastine fumarate 1, clemastine fumarate], the “nitrite formation (NO levels)” value [7] is reported as “no significant effect”, the “nitrite formation (NO levels)” value ([7]; listed as clemastine) is reported as “statistically non-significant” and the cell density [8] is reported as “no change in cell density”. For the same compound, the “effect of addition of extracellular ATP, P2X7R KO macrophages” value [9] was “did not show any effect”, the “oral LD50 (mouse)” value [10] was 730 mg.kg^–1 and the “oral LD50 (rat)” value [11] was 3550 mg.kg^–1. The volume of distribution [12] was 9.5 ± 3.8 L kg^–1.
